# Measured values taken from patent publication EP4722213A1, “NITROGEN-CONTAINING FUNCTIONAL GROUP-SUBSTITUTED PYRIDAZINOPYRIDONE DERIVATIVE AND USE THEREOF” (Sichuan Huiyu Pharmaceutical Co., Ltd., priority 2023, dated 2024).
# Counter-ions that a name gives are not always drawn.
# Target: T1, SOS1 (Homo sapiens, UniProt Q07889)
# T1 sequence (Q07889 1-1333): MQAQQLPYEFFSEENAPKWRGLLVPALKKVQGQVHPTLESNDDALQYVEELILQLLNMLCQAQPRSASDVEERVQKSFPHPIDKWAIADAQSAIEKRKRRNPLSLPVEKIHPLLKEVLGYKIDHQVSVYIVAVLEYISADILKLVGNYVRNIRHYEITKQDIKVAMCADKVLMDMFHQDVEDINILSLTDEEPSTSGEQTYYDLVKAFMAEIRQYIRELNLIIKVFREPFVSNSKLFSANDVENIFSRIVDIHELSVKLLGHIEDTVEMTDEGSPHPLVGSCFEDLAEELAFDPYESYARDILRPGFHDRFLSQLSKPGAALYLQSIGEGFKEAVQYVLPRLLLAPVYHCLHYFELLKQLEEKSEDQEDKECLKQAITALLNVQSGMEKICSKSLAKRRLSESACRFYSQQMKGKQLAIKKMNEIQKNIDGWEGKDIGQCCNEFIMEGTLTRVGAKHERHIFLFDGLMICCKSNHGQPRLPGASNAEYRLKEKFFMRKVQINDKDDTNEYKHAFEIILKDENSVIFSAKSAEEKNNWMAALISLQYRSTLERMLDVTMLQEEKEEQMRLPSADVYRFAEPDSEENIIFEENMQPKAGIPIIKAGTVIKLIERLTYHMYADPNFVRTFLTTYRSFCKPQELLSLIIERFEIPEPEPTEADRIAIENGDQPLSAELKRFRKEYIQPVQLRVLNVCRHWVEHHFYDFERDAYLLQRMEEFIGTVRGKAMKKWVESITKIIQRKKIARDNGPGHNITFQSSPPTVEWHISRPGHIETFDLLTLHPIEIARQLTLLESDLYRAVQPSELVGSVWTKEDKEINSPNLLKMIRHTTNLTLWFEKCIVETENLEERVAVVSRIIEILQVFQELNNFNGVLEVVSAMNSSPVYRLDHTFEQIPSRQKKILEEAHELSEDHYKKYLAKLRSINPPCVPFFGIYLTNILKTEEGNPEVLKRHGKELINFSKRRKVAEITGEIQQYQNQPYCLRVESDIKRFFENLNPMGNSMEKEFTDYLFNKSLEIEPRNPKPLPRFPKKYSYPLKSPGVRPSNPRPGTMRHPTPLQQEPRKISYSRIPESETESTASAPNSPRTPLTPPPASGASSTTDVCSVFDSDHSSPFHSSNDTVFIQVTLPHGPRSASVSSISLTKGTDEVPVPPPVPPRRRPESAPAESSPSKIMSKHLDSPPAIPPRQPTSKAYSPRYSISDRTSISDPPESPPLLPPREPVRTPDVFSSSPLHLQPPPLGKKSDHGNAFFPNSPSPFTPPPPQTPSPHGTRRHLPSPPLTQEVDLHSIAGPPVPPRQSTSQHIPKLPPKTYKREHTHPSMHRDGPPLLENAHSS
# Experiment: biochemical
structure (smiles),measurement,value
"C[C@@H](Nc1nnc(N2CCC3(CCN(C)C3)C2)c2cc(=O)n(C3(C)CC3)cc12)c1cccc(C(F)F)c1F (stereo partly drawn) [Example 183, 4-(((R)-1-(3-(difluoromethyl)-2-fluorophenyl)ethyl)amino)-1-(7-methyl-2,7-diazaspiro[4.4]nonan-2-yl)-6-(1-methylcyclopropyl) pyrido[3,4-d]pyridazin-7(6H)-one]",IC50,4.9 nM
"Cc1c([C@@H](C)Nc2nnc(N3CCC(F)(F)C3)c3cc(=O)n(C4CC4)cc23)cccc1C(F)(F)F [Example 55, (R)-6-cyclopropyl-1-(3,3-difluoropyrrolidin-1-yl)-4-((1-(2-methyl-3-(trifluoromethyl)phenyl)ethyl)amino)pyr ido[3,4-d]pyridazin-7(6H)-one]",IC50,49.2 nM
"C[C@@H](Nc1nnc(N(C)C)c2cc(=O)n(C3CC3)cc12)c1cccc(C(F)F)c1F [Example 76, (R)-6-cyclopropyl-4-((1-(3-(difluoromethyl)-2-fluorophenyl)ethyl)amino)-1-(dimethylamino) pyrido[3,4-d]pyridazin-7(6H)-one]",IC50,9.2 nM
"CCn1cc2c(N[C@H](C)c3cccc(C(F)F)c3F)nnc(N3CCN(C(C)C)CC3)c2cc1=O [Example 118, (R)-4-((1-(3-(difluoromethyl)-2-fluorophenyl)ethyl)amino)-6-ethyl-1-(4-isopropylpiperazin-1-yl)pyrido[3,4-d]pyridazin-7(6H)-one]",IC50,8.4 nM
"C[C@@H](Nc1nnc(N2CC[C@@H](O)C2)c2cc(=O)n(C3(C)CC3)cc12)c1cccc(C(F)F)c1F [Example 137, 4-(((R)-1-(3-(difluoromethyl)-2-fluorophenyl)ethyl)amino)-1-((R)-3-hydroxypyrrolidin-1-yl)-6-(1-methylcyclopropyl) pyrido[3,4-d]pyridazin-7(6H)-one formate]",IC50,4.8 nM
"Cc1c([C@@H](C)Nc2nnc(N3CCN(C4CCCC4)CC3)c3cc(=O)n(C4(C)CC4)cc23)cccc1C(F)(F)F [Example 96, (R)-1-(4-cyclopentylpiperazin-1-yl)-4-((1-(2-methyl-3-(trifluoromethyl)phenyl)ethyl)amino)-6-(1-methylcyclopropyl) pyrido[3,4-d]pyridazin-7(6H)-one]",IC50,7.4 nM
"Cc1c([C@@H](C)Nc2nnc(N(C)C)c3cc(=O)n(C4(C)CC4)cc23)cccc1C(F)(F)F [Example 64, (R)-1-(dimethylamino)-4-((1-(2-methyl-3-(trifluoromethyl)phenyl)ethyl)amino)-6-(1-methylcyclopropyl) pyrido[3,4-d]pyridazin-7(6H)-one]",IC50,10.7 nM
"C[C@@H](Nc1nnc(NC23CC(C2)C3)c2cc(=O)n(C3(C)CC3)cc12)c1cccc(C(F)F)c1F [Example 125, (R)-1-(bicyclo[1.1.1]pentan-1-ylamino)-4-((1-(3-(difluoromethyl)-2-fluorophenyl)ethyl)amino)-6-(1-methylcyclopropyl) pyrido[3,4-d]pyridazin-7(6H)-one]",IC50,14.1 nM
"Cc1c(C#N)cccc1[C@@H](C)Nc1nnc(N2CCN(C)CC2)c2cc(=O)n(C3(C)CC3)cc12 [Example 82, (R)-2-methyl-3-(1-((6-(1-methylcyclopropyl)-1-(4-methylpiperazin-1-yl)-7-oxo-6,7-dihydropyrido[3,4-d]pyridazin-4-yl)amino)ethyl)benzonitrile]",IC50,9 nM
"CCN(C)c1nnc(N[C@H](C)c2cccc(C(F)F)c2F)c2cn(C3(C)CC3)c(=O)cc12 [Example 122, (R)-4-((1-(3-(difluoromethyl)-2-fluorophenyl)ethyl)amino)-1-(ethyl(methyl)amino)-6-(1-methylcyclopropyl) pyrido[3,4-d]pyridazin-7(6H)-one]",IC50,10.6 nM
"CCN(CC)c1nnc(N[C@H](C)c2cccc(C(F)F)c2F)c2cn(C3(C)CC3)c(=O)cc12 [Example 29, (R)-1-(diethylamino)-4-(((R)1-(3-(difluoromethyl)-2-fluorophenyl)ethyl)amino)-6-(1-methylcyclopropyl) pyrido[3,4-d]pyridazin-7(6H)-one]",IC50,10.6 nM
"Cc1cc(N)cc([C@@H](C)Nc2nnc(N3CCN(C(C)C)CC3)c3cc(=O)n(C4CC4)cc23)c1F [Example 147, (R)-4-((1-(5-amino-2-fluoro-3-methylphenyl)ethyl)amino)-6-cyclopropyl-1-(4-isopropylpiperazin-1-yl)pyrido[3,4-d]pyridazin-7(6H)-one formate]",IC50,6.3 nM
"C[C@@H](Nc1nnc(N2CCN(C3CCCC3)CC2)c2cc(=O)n(C3CC(F)(F)C3)cc12)c1cccc(C(F)F)c1F [Example 106, (R)-6-(3,3-difluorocyclobutyl)-4-((1-(3-(difluoromethyl)-2-fluorophenyl)ethyl)amino)-1-(4-cyclopentylpiperazin-1-yl)pyrido[3,4-d]pyridazin-7(6H)-one]",IC50,5.2 nM
"C[C@@H](Nc1nnc(N2CCN(C)CC2)c2cc(=O)n(C)cc12)c1cccc(C(F)F)c1F [Example 138, (R)-4-((1-(3-(difluoromethyl)-2-fluorophenyl)ethyl)amino)-6-methyl-1-(4-methylpiperazin-1-yl)pyrido[3,4-d]pyridazin-7(6H)-one formate]",IC50,10.7 nM
"C[C@@H](Nc1nnc(N2CC3(COC3)C2)c2cc(=O)n(C3(C)CC3)cc12)c1cccc(C(F)F)c1F [Example 190, (R)-4-((1-(3-(difluoromethyl)-2-fluorophenyl)ethyl)amino)-6-(1-methylcyclopropyl)-1-(2-oxa-6-azaspiro[3.3]heptan-6-yl)pyrido[3,4-d]pyridazin-7(6H)-one]",IC50,4.2 nM
"C[C@@H](Nc1nnc(N2CCN(C(C)(C)C)CC2)c2cc(=O)n(C3(C)CC3)cc12)c1cccc(C(F)(F)F)c1F [Example 172, (R)-4-((1-(2-fluoro-3-(trifluoromethyl)phenyl)ethyl)amino)-1-(4-tert-butylpiperazin-1-yl)-6-(1-methylcyclopropyl) pyrido[3,4-d]pyridazin-7(6H)-one]",IC50,4.7 nM
"Cc1c(C#N)cccc1[C@@H](C)Nc1nnc(N2CCC(F)(F)CC2)c2cc(=O)n(C3(C)CC3)cc12 [Example 47, (R)-3-(1-((1-(4,4-difluoropiperidin-1-yl)-6-(1-methylcyclopropyl)-7-oxo-6,7-dihydropyrido[3,4-d]pyridazin-4-yl)amino)ethyl)-2-methylbenzonitrile]",IC50,66.2 nM
"C[C@@H](Nc1nnc(N2CC(CO)C2)c2cc(=O)n(C3(C)CC3)cc12)c1cccc(C(F)(F)F)c1 [Example 177, (R)-1-(3-(hydroxymethyl)azetidin-1-yl)-6-(1-methylcyclopropyl)-4-((1-(3-(trifluoromethyl)phenyl)ethyl)amino)pyr ido[3,4-d]pyridazin-7(6H)-one formate]",IC50,6.2 nM
"C[C@@H](Nc1nnc(N2CCC3(CCCC3)CC2)c2cc(=O)n(C3(C)CC3)cc12)c1cccc(C(F)F)c1F [Example 185, (R)-4-((1-(3-(difluoromethyl)-2-fluorophenyl)ethyl)amino)-6-(1-methylcyclopropyl)-1-(8-azaspiro[4.5]decan-8-yl)pyrido[3,4-d]pyridazin-7(6H)-one]",IC50,84.3 nM
"C[C@@H](Nc1nnc(-n2cccn2)c2cc(=O)n(C3(C)CC3)cc12)c1cccc(C(F)F)c1F [Example 33, (R)-4-((1-(3-(difluoromethyl)-2-fluorophenyl)ethyl)amino)-6-(1-methylcyclopropyl)-1-(1H-pyrazol-1-yl)pyrido[3,4-d]pyridazin-7(6H)-one]",IC50,22.5 nM
"C[C@@H](Nc1nnc(N2CCC3(CCC3)CC2)c2cc(=O)n(C3(C)CC3)cc12)c1cccc(C(F)F)c1F [Example 184, (R)-4-((1-(3-(difluoromethyl)-2-fluorophenyl)ethyl)amino)-6-(1-methylcyclopropyl)-1-(7-azaspiro[3.5]nonan-7-yl)pyrido[3,4-d]pyridazin-7(6H)-one]",IC50,40.2 nM
"CCN(CC)c1nnc(N[C@H](C)c2cccc(C(F)(F)F)c2C)c2cn(C3(C)CC3)c(=O)cc12 [Example 60, (R)-1-(diethylamino)-4-((1-(2-methyl-3-(trifluoromethyl)phenyl)ethyl)amino)-6-(1-methylcyclopropyl) pyrido[3,4-d]pyridazin-7(6H)-one]",IC50,20.9 nM
